Results: ChEMBL document CHEMBL5260816, “Synthesis and biological evaluation of the natural product komaroviquinone and related compounds aiming at a potential therapeutic lead compound for high-risk multiple myeloma” (Bioorg Med Chem Lett, 2017)

Key:
[1] = Cytotoxicity against human MUM24 cells assessed as reduction in cell viability incubated for 48 hrs by MTT assay; type: functional, cell-based; conditions: MUM24, 48 h
[2] = Toxicity in ICR mouse bone marrow cells assessed as inhibition of cell differentiation incubated for 14 days by colony forming cell assay; type: cell-based; conditions: 336 h, time 14 day
[3] = Toxicity in ICR mouse bone marrow cells assessed as inhibition of cell differentiation at higher concentration incubated for 14 days by colony forming cell assay; type: cell-based; conditions: 336 h, time 14 day
[4] = Toxicity in ICR mouse bone marrow cells assessed as inhibition of cell differentiation at 1 uM incubated for 14 days by colony forming cell assay; type: cell-based; conditions: 336 h, time 14 day

COc1cc(C[C@@]23CCCC(C)(C)[C@@H]2CC(=O)O3)c(OC)c(OC)c1C(C)C
IC50 [1]: 4.97 µM

COC1=C(C(C)C)C(=O)C=C(C[C@@]23CCCC(C)(C)[C@@H]2CC(=O)O3)C1=O
IC50 [1]: < 3 µM

COC1=C(C(C)C)C(=O)C=C(Cc2ccccc2)C1=O
IC50 [1]: < 3 µM

COC1=C(C(C)C)C(=O)C=C(CNC(=O)C2CCCCC2)C1=O
IC50 [1]: < 3 µM

COC1=C(C(C)C)C(=O)C=C(COC(C)C)C1=O
IC50 [1]: < 3 µM

COC1=C(C(C)C)C(=O)C=C(COC(Cn2cncn2)c2ccc(F)cc2F)C1=O (centres undefined)
IC50 [1]: 3.31 µM

COC1=C(C(C)C)C(=O)C=C(CC(O)(Cn2cncn2)c2ccc(F)cc2F)C1=O (centres undefined)
IC50 [1]: 2.49 µM
Activity [2]: Toxic

COc1c2c(c(OC)c(C(C)C)c1OC)C(=O)CCC2
IC50 [1]: > 30 µM

COc1c(O)c2c(c(O)c1C(C)C)C(=O)C[C@H]1C(C)(C)CCC[C@]1(O)C2
IC50 [1]: 6.13 µM
Activity [2]: Toxic

COc1cc(CC(O)(Cn2cncn2)c2ccc(F)cc2F)c(OC)c(OC)c1C(C)C (centres undefined)
IC50 [1]: 9.85 µM
Activity [3]: Non-Toxic

COc1c2c(c(OC)c(C(C)C)c1OC)C(=O)CCCC2
IC50 [1]: > 30 µM

COC1=C(C(C)C)C(=O)c2ccc(-c3ccccc3)nc2C1=O
IC50 [1]: 4.12 µM

COc1c(OC(C)=O)c2c(c(OC(C)=O)c1C(C)C)C(=O)C[C@H]1C(C)(C)CCC[C@]1(O)C2
IC50 [1]: 19.4 µM

COc1c2c(c(OC)c(C(C)C)c1OC)C(=O)C[C@H]1C(C)(C)CCC[C@]1(O)C2
IC50 [1]: > 10 µM

COc1cc(CC2=CCCC(C)(C)[C@@H]2CC(=O)O)c(OC)c(OC)c1C(C)C
IC50 [1]: > 10 µM

COc1c(OC(C)=O)c2c(c(O)c1C(C)C)C(=O)C[C@H]1C(C)(C)CCC[C@]1(O)C2
IC50 [1]: 12.5 µM

COC1=C(C(C)C)C(=O)c2cc3c(nc2C1=O)CCCC3
IC50 [1]: 1.39 µM

COc1cc(COC(Cn2cncn2)c2ccc(F)cc2F)c(OC)c(OC)c1C(C)C (centres undefined)
IC50 [1]: 7 µM
Activity [3]: Non-Toxic

COC1=C(C(C)C)C(=O)C2=C(C[C@@]34CCCC(C)(C)[C@@H]3C[C@]2(O)O4)C1=O [KOMAROVIQUINONE]
IC50 [1]: 0.65 µM
Activity [4]: Toxic
